Measurements published in publication PMC7271538 (Frontiers in Microbiology, 2020).
Structures can show the parent of a compound that is named as a salt. Where two headings read alike, the source gives them in different places.

Molecular target: T1, prolyl oligopeptidase (rPOPLi) (Leishmania infantum, UniProt A4ICB5)
T1 construct: gene LINJ_36_7060; full-length, recombinant from E. coli (pET-15b)
Experiment: fluorogenic assay, single concentration […]
Type: biochemical

T1 sequence (A4ICB5 entry or part of it): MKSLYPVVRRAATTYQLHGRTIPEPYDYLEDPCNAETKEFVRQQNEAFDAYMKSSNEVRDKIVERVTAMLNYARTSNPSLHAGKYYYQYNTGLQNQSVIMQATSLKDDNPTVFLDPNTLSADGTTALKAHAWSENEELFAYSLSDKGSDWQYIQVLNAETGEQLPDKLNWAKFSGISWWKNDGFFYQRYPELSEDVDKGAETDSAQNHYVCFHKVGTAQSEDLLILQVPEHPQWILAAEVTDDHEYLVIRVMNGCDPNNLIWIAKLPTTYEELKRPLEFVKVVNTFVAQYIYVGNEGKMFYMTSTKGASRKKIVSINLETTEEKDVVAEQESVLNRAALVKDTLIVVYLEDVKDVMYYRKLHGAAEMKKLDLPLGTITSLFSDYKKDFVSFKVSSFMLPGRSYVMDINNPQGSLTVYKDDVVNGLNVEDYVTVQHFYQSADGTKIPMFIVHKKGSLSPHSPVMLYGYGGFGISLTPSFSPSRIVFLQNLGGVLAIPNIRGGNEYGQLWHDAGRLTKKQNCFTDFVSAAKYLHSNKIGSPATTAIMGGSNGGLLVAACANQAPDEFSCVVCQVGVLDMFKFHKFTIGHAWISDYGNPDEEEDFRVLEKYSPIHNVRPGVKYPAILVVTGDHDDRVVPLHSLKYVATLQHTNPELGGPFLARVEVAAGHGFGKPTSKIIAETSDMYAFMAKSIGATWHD

Compound `Cc1ccc(S(=O)(=O)N[C@@H](CCCCN)C(=O)CCl)cc1` [TLCK, N-α-Tosyl-L-lysine chloromethyl ketone hydrochloride] has an inhibition at 100 µM of 96.8%.
`Cc1ccc(S(=O)(=O)N[C@@H](Cc2ccccc2)C(=O)CCl)cc1` [TPCK, N-p-Tosyl-L-phenylalanine chloromethyl ketone] gave an inhibition at 100 µM (read-out: Inhibition (%)) of 92.3%.
